Reference: PMC8637440, “Structural Modifications Yield Novel Insights Into the Intriguing Pharmacodynamic Potential of Anti-inflammatory Nitro-Fatty Acids” (Frontiers in Pharmacology, 2021)
“Also recorded” adds a separate entry of the source.

What was measured:
[1] = molecular target: T1, COX-2 (Homo sapiens, UniProt P35354); assay: Cell-based COX-2 activity assay in IL-1β-stimulated A549 cells; design: endogenous in cells; host or cells: A549 stimulated with 1 ng/ml IL-1β; settings: 10 µM, 24 h, 1 ng/ml IL-1β
T1 sequence (P35354 18-604): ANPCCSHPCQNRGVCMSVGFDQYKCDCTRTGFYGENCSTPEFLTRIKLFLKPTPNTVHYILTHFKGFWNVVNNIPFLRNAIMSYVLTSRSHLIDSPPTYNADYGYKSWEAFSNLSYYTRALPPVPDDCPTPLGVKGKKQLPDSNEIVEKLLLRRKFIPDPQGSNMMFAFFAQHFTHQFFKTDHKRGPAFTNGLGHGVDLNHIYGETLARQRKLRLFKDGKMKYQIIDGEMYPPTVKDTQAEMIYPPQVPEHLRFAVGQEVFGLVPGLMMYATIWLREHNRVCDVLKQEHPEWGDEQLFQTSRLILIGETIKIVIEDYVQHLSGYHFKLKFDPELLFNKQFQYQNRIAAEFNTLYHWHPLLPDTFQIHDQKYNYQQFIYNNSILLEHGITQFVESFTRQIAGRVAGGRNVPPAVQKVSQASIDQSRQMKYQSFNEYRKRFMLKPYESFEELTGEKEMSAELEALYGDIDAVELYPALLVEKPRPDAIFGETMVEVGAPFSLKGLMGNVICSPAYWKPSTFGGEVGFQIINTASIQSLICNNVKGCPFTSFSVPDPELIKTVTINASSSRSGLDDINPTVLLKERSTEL
Method: The COX-2 inhibitory effects of NFA were investigated using a cell-based COX-2 activity assay performed using a Cyclooxygenase (COX) Activity Assay Kit (Fluorometric) from Abcam (Cambridge, UK; #ab204699). A549 cells (3 × 10^6) were seeded in 10-cm dishes and allowed to become adherent for 3 h. […] Then, cells were detached with a cell scraper and washed twice with 1× PBS before being resuspended in 100 µl lysis buffer (1× PBS containing 1% NP-40). The cells were incubated for 30 min with shaking on ice. After 3-min centrifugation at 12,000 ×g at 4°C, 20 µl supernatant was used for the COX activity assay. The assay was performed according to the manufacturer’s instructions in a white 96-well microplate with a clear bottom in duplicate. […] COX-2 activity was normalized to protein concentration.
Suppl. Figure 5: Effects of NFA on cellular COX-2 activity. COX-2 Activity of A549 cells […]
h. Cells were lysed, and COX-2 activity was measured using Cyclooxygenase (COX) Activity Assay Kit (Fluorometric) from Abcam. (A) NFA derivatives with different chain length. (B) NFA derivatives with different Michael acceptor position. Samples were normalized to protein concentration. Data are presented as mean + SD of n=4. COX, cyclooxygenase; DMSO, dimethyl sulfoxide NFA, nitro fatty acids .
(1 picture or pasted object on this page, not shown here)

[2] = tested on: NF-κB p65; assay: NF-κB p65 transcription factor ELISA in TNFα-stimulated HCT-116 cells; format: cell-based; settings: Homo sapiens; 10 µM, 14 h preincubation, then 10 ng/ml TNF-α 4 h, HCT-116, ELISA; read-out: inhibition of NF-κB p65 signaling
Method: The Nrf-2 and NF-κB transcription factors in the nuclear extracts were detected using an Nrf-2 Transcription Assay Kit (Cayman Chemical, # 600590) and NF-κB (p65 and p50) Transcription Factor Assay Kit (Cayman Chemical, # 10007889 and # 10006912). Prior to assay performance, the nuclear extracts were generated using a Nuclear Extraction Kit (Cayman Chemical, # 10009277). The assay was performed according to the manufacturer’s instructions. For all kits, the nuclear extracts were incubated overnight at 4°C. Development was carried out for 15–20 min or until the wells turned medium to dark blue. Five minutes after the stop solution had been added, the absorbance was read at 450 nm using a plate reader.
The proteasome inhibitor MG132 ([Lee and Goldberg, 1998]) was used as a positive control, as proteasomal inhibition leads to stabilization of I-κB and thus inhibits the activation of the NF-κB signaling pathway. We used a MG132 incubation period of 4 h as longer incubations have been described to activate NF-κB signaling ([Lee et al., 2013]).
FIGURE 1 Effects of NFA on the NF-κB p65 and p50 signaling pathway in colorectal cancer cells. […] Incubation for 4 h with the proteasome inhibitor MG132 (1 µM) served as the positive control. […] Values are normalized to protein concentration and unstimulated vehicle control. Data are represented as mean ± SD of (A) n = 3 (DMSO, 16.9.9, 9NOA control of right panel, 18.4.4, 18.6.7, and 18.9.10), n = 4 (all other derivatives) and (B) n = 5. Statistical significance was calculated by one-way analysis of variance (ANOVA) with Bonferroni post-test. *p ≤ 0.03, **p ≤ 0.0021, ***p ≤ 0.0002, ****p ≤ 0.0001 were considered significant versus TNF-α treatment.

[3] = molecular target: T1, COX-2; assay: Recombinant COX-2 peroxidase activity assay; format: biochemical; design: purchased Cayman Chemicals #700100; settings: 30 min preincubation
Method: The effects of NFA on COX-2 activity were analyzed using a recombinant COX-2 activity assay using a COX Fluorescent Inhibitor Screening Assay Kit (Cayman Chemicals, #700100). The assay was performed according to the manufacturer’s instructions in a black 96-well microplate. Human COX-2 was pre-incubated with NFA and control inhibitors for 30 min at RT following the addition of ADHP (10-acetyl-3,5-dihydroxyphenoxazine) and AA. The mixture was incubated again for 2 min at RT, and the fluorescence was measured at excitation/emission wavelengths of 535/587 nm.
FIGURE 4 Effects of NFA on COX-2 peroxidase activity. […] Peroxidase activity was measured by the appearance of TMPD. Data are presented as the percent of the control mean ± SD, n = 4. Statistical significance was calculated by one-way ANOVA with Bonferroni post-test. **p ≤ 0.0021, ***p ≤ 0.0002, ****p ≤ 0.0001 are considered significant.

SMILES | effect on COX-2 activity in IL-1β-stimulated A549 cells [1] | inhibition at 10 µM [2] [%] | inhibition at 10 µM [3] [%] | inhibition of recombinant COX-2 peroxidase activity ([3]; 10 µM)
CCC=C(CCCCCCCC(=O)O)[N+](=O)[O-] [12.9.9, 9-nitro-dodec-9-enoic acid] | failed increasing COX-2 product formation | – | – | –
CCCCC=C(CCCCCCCC(=O)O)[N+](=O)[O-] [14.9.9, 9-nitro-tetradec-9-enoic acid] | failed increasing COX-2 product formation | – | – | –
CCCCCCC=C(CCCCCCCC(=O)O)[N+](=O)[O-] [16.9.9, 9-nitro-hexadec-9-enoic acid] | failed increasing COX-2 product formation | – | – | –
CCCCCCCCCCCC=C(CCCCC(=O)O)[N+](=O)[O-] [18.6.6, 6-nitro-octadec-6-enoic acid] | induced COX-2 activity | – | – | –
CCCCCCCCCCC=C(CCCCCC(=O)O)[N+](=O)[O-] [18.7.7, 7-nitro-octadec-7-enoic acid] | – | ~90 | – | –
CCCCCCCCCC=C(CCCCCCC(=O)O)[N+](=O)[O-] [18.8.8, 8-nitro-octadec-8-enoic acid] | induced COX-2 activity | 50 | – | –
CCCCCCCCCC(=CCCCCCCC(=O)O)[N+](=O)[O-] [18.8.9, 9-nitro-octadec-8-enoic acid] | – | 50 | – | –
CCCCCCCCC=C(CCCCCCCC(=O)O)[N+](=O)[O-] [18.9.9, 9-nitro-octadec-9-enoic acid] | no COX-2 inhibition | 50 | > 65 | –
CCCCCCCC=C(CCCCCCCCC(=O)O)[N+](=O)[O-] [18.10.10, 10-nitro-octadec-10-enoic acid] | slight COX-2 inhibition | – | > 90 | –
CCCCCCCCCCC=C(CCCCCCCC(=O)O)[N+](=O)[O-] [20.9.9, 9-nitro-eicos-9-enoic acid] | no COX-2 inhibition; also recorded: increased COX-2 product formation | – | > 85 | –
CCCCCCCC/C=C\CCCCCCCC(=O)O [OA, oleic acid, reference compound] | – | – | – | only weakly affected
